Counter-ions that a name gives are not always drawn.
Test: collision cross section in nitrogen (drift tube, single-field); higher = larger gas-phase ion size
[1] = ion type: [M+Na], ion source: ESI, ion mode: Positive
[2] = ion type: [M-H], ion source: ESI, ion mode: Negative
[3] = ion type: [M+H], ion source: APCI, ion mode: Positive
[4] = ion type: [M+H], ion source: ESI, ion mode: Positive
[5] = ion source: ESI, ion mode: Positive, ion type: [M]+ (permanent cation)
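Further: chemical standards at 10 µM analysed by drift tube IMS-QTOF MS in about 3.95 torr nitrogen, mean of duplicate injections differing ≤1%, mass error below 10 ppm.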

collision cross section in nitrogen [2] [Å²] | collision cross section in nitrogen [3] [Å²] | Compound | collision cross section in nitrogen [1] [Å²] | collision cross section in nitrogen [4] [Å²] | further results
 |  | CCOC(=O)C(SP(=S)(OC)OC)c1ccccc1 (configuration not stated) [Phenthoate] | 175.1 |  | 
145.7 |  | O=C(Oc1ccccc1)c1ccccc1O [Phenyl salicylate] |  |  | 
150.3 |  | O=C(Oc1ccccc1)c1ccc(O)cc1 [Phenylparaben] |  |  | 
 |  | CCOP(=S)(OCC)SCS(=O)(=O)CC [Phorate sulfone] | 162.8 |  | 
 |  | CO/C=C(/C(=O)OC)c1ccccc1COc1cccc(C(F)(F)F)n1 [Picoxystrobin] | 179.3 |  | 
 |  | CCOc1ccc2c(ccc(C=Cc3cccc([N+](=O)[O-])c3)[n+]2C)c1 [Pinakryptol Yellow] |  |  | collision cross section in nitrogen [5]: 189.2 Å²
176.4 | 178.8 | CCc1ccc(CCOc2ccc(CC3SC(=O)NC3=O)cc2)nc1 (configuration not stated) [Pioglitazone hydrochloride] | 186.7 | 178.9 | 
 | 176 | O=C(/C=C/C=C/c1ccc2c(c1)OCO2)N1CCCCC1 [Piperine] | 177.8 | 175.7 | 
 |  | CCCCOCCOCCOCc1cc2c(cc1CCC)OCO2 [Piperonyl butoxide] | 179.9 |  | 
204.3 |  | CS(=O)(=O)c1ccc([C@@H](C[C@H]2CCC(=O)C2)C(=O)Nc2cnccn2)cc1Cl [Piragliatin] |  |  | 
207.8 | 202.3 | O=C(O)C[C@H](O)C[C@H](O)/C=C/c1c(C2CC2)nc2ccccc2c1-c1ccc(F)cc1 [Pitavastatin calcium] | 196.7 | 203.2 | 
186.1 |  | CCCCCCCCC=CCCCCCCCC(=O)OCCO [Poly(oxyethylene) monoleate] |  |  | 
131.2 |  | O=S(=O)(O)c1cc(O)ccc1O [Potassium 2,5-dihydroxybenzenesulfonate] |  |  | 
137.8 |  | CCCCC(CC)C(=O)O (configuration not stated) [Potassium 2-ethylhexanoate] |  |  | 
159.1 |  | CC(=O)CC(=O)Nc1ccc(S(=O)(=O)O)cc1 [Potassium 4-acetoacetylaminobenzenesulphonate] |  |  | 
148.2 |  | O=S(=O)(O)c1ccc2cc(O)ccc2c1 [Potassium 6-hydroxynaphthalene-2-sulfonate] |  |  | 
134.6 |  | O=C(O)CNc1ccccc1 [Potassium anilinoacetate] |  |  | 
92.6 |  | I [Potassium iodide] |  |  | 
 |  | C#CCC1=C(C)C(OC(=O)C2C(C=C(C)C)C2(C)C)CC1=O (configuration not stated) [Prallethrin] | 182.8 |  | 
 | 152.8 | CCCN[C@H]1CCc2nc(N)sc2C1 [Pramipexole dihydrochloride monohydrate] |  | 152.6 | 

collision cross section in nitrogen [2] [Å²] | collision cross section in nitrogen [3] [Å²] | Compound | collision cross section in nitrogen [1] [Å²] | collision cross section in nitrogen [4] [Å²] | further results
201.5 |  | CC[C@H](C)C(=O)O[C@H]1C[C@H](O)C=C2C=C[C@H](C)[C@H](CC[C@@H](O)C[C@@H](O)CC(=O)O)[C@H]21 [Pravastatin sodium] | 206.7 |  | 
 | 178.5 | O=C(C1CCCCC1)N1CC(=O)N2CCc3ccccc3C2C1 (configuration not stated) [Praziquantel] | 185.4 | 178.3 | 
 | 186.4 | C[C@]12C=CC(=O)C=C1CC[C@@H]1[C@@H]2[C@@H](O)C[C@@]2(C)[C@H]1CC[C@]2(O)C(=O)CO [Prednisolone] | 210.8 |  | 
 | 184.1 | C[C@]12C=CC(=O)C=C1CC[C@@H]1[C@@H]2C(=O)C[C@@]2(C)[C@H]1CC[C@]2(O)C(=O)CO [Prednisone] | 192.2 |  | 
189.5 |  | CC(=O)[C@H]1[C@H](C#N)C[C@H]2[C@@H]3CC=C4C[C@@H](O)CC[C@]4(C)[C@H]3CC[C@@]21C [Pregnenolone carbonitrile] |  |  | 
 |  | COC(=O)c1ccccc1S(=O)(=O)NC(=O)Nc1nc(OC(F)F)cc(OC(F)F)n1 [Primisulfuron-methyl] | 199.7 |  | 
172.9 |  | CCCN(CCC)S(=O)(=O)c1ccc(C(=O)O)cc1 [Probenecid] |  |  | 
 | 155.9 | CCN(CC)CCOC(=O)c1ccc(N)cc1 [Procaine hydrochloride] |  | 157.1 | 
 | 159.4 | CC(C)(C#N)Nc1nc(Cl)nc(NC2CC2)n1 [Procyazine] |  | 159 | 
171.1 |  | CCCN(CCC)c1c([N+](=O)[O-])cc(C(F)(F)F)c(N)c1[N+](=O)[O-] [Prodiamine] |  |  | 
 |  | CCCSP(=O)(OCC)Oc1ccc(Br)cc1Cl (configuration not stated) [Profenofos] | 184.3 | 169.5 | 
 | 143.4 | Nc1ccc2cc3ccc(N)cc3nc2c1 [Proflavin hydrochloride] |  | 143.9 | 
 |  | CNC(=O)Oc1cc(C)cc(C(C)C)c1 [Promecarb] | 157.5 |  | 
 | 163.3 | CC(CN1c2ccccc2Sc2ccccc21)N(C)C (configuration not stated) [Promethazine hydrochloride] | 172.5 | 163.7 | 
 | 142.7 | CCCOC(=O)NCCCN(C)C [Propamocarb hydrochloride] |  | 143.4 | 
 | 142.9 | CCCOC(=O)NCCCN(C)C [Propamocarb] |  | 143.3 | 
151.3 |  | CCCCC(CC)C(=O)OC(C)C (configuration not stated) [Propan-2-yl 2-ethylhexanoate] |  |  | 
 |  | CC(C)[N+](C)(CCOC(=O)C1c2ccccc2Oc2ccccc21)C(C)C [Propantheline bromide] |  |  | collision cross section in nitrogen [5]: 184.1 Å²
 |  | C#CCOS(=O)OC1CCCCC1Oc1ccc(C(C)(C)C)cc1 (configuration not stated) [Propargite] | 186.9 |  | 

Compound | collision cross section in nitrogen [2] [Å²] | collision cross section in nitrogen [3] [Å²] | collision cross section in nitrogen [1] [Å²] | collision cross section in nitrogen [4] [Å²] | further results
O=P(O)(O)c1ccccc1 [Phenylphosphonic acid] | 130.1 |  |  |  | 
CCOP(=O)(N=C1SCCS1)OCC [Phosfolan] |  | 150.2 | 165.3 | 150.2 | 
CCCCOP(=O)(O)OCCCC [Phosphoric acid, dibutyl ester] | 151.3 |  |  |  | 
Cc1cccc(OP(=O)(Oc2cccc(C)c2)Oc2cccc(C)c2)c1 [Phosphoric acid, tris(3-methylphenyl) ester] |  | 188.7 | 198.9 | 188.6 | 
CCOP(=S)(OCC)ON=C(C#N)c1ccccc1 [Phoxim] | 165.7 |  |  |  | 
CNC(=O)Oc1ccc2c(c1)[C@]1(C)CCN(C)[C@@H]1N2C [Physostigmine] |  | 169.6 | 169.6 | 169.8 | 
O=c1[nH]c2ccccc2n1C1CCN(CCCC(c2ccc(F)cc2)c2ccc(F)cc2)CC1 [Pimozide] | 215.8 | 211.9 | 217.6 | 211.8 | 
CCc1cc(C)cc(CC)c1-c1c(OC(=O)C(C)(C)C)n2n(c1=O)CCOCC2 [Pinoxaden] |  | 196.5 | 202.8 | 196.6 | 
Cc1nc(N(C)C)nc(OC(=O)N(C)C)c1C [Pirimicarb] |  | 152 | 164.2 | 156.4 | 
CCOP(=S)(OCC)Oc1cc(C)nc(N(CC)CC)n1 [Pirimiphos-ethyl] |  | 176.3 | 181.5 | 178.3 | 
CCN(CC)c1nc(C)cc(OP(=S)(OC)OC)n1 [Pirimiphos-methyl] |  | 165.5 |  | 167.9 | 
[O-][Cl+2]([O-])O [Potassium chlorate] | 104 |  |  |  | 
O=[N+]([O-])O [Potassium nitrate] | 104.9 |  |  |  | 
[O-][Cl+3]([O-])([O-])O [Potassium perchlorate] | 105.2 |  |  |  | 
O=S(=O)(O)C(F)(F)C(F)(F)C(F)(F)C(F)(F)F [Potassium perfluorobutanesulfonate] | 134.2 |  |  |  | 
O=S(=O)(O)C(F)(F)C(F)(F)C(F)(F)C(F)(F)C(F)(F)C(F)(F)F [Potassium perfluorohexanesulfonate] | 150.9 |  |  |  | 
O=S(=O)(O)C(F)(F)C(F)(F)C(F)(F)C(F)(F)C(F)(F)C(F)(F)C(F)(F)C(F)(F)F [Potassium perfluorooctanesulfonate] | 169 |  |  |  | 
CC12CC1(C)C(=O)N(c1cc(Cl)cc(Cl)c1)C2=O (configuration not stated) [Procymidone] | 157.1 |  |  |  | 
CCCN(CC1CC1)c1c([N+](=O)[O-])cc(C(F)(F)F)cc1[N+](=O)[O-] [Profluralin] | 172.2 |  |  |  | 
COc1nc(NC(C)C)nc(NC(C)C)n1 [Prometon] |  | 156.1 | 173.7 | 156.5 | 
CSc1nc(NC(C)C)nc(NC(C)C)n1 [Prometryn] |  | 160.9 |  | 161 | 
CC(C)N(C(=O)CCl)c1ccccc1 [Propachlor] |  | 143.4 | 161.5 | 143.2 | 
N#CCC#N [Propanedinitrile] | 103.8 |  |  |  | 
CCNP(=S)(OC)O/C(C)=C/C(=O)OC(C)C (configuration not stated) [Propetamphos] | 168.1 |  | 170.5 |  | 

Source: the supplement of paper PMC12317010
